Assay results from patent publication US20220023306A1, “USE OF A PPAR-DELTA AGONIST IN THE TREATMENT OF FATTY ACID OXIDATION DISORDERS (FAOD)” (Reneo Pharmaceuticals, Inc., priority 2019, published 2022).

Experiments:
Assay type in all cases: cell-based
hPPARδ = molecular target: T1, hPPARδ (Homo sapiens, UniProt Q03181); assay: PPAR transient transactivation assay, hPPARδ
T1 construct: is generated by PCR (PPARδ: aa 128-C-terminus); expressed in transfected cells; host or cells: HEK293
T1 sequence (Q03181 128-441 limits assumed): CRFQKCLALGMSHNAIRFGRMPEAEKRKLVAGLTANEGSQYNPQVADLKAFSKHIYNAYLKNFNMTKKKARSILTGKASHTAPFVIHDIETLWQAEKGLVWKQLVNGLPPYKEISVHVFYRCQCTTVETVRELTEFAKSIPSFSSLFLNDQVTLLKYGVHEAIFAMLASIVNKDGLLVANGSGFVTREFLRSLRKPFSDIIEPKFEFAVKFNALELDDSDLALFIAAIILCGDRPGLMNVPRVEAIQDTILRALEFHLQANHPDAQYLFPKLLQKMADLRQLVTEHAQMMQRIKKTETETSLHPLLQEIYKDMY
Method: (§1) “Activation” herein is defined as the abovementioned downstream response, which in the case of PPAR's is gene transcription. Gene transcription, in some cases, is measured indirectly as downstream production of proteins reflective of the activation of the particular PPAR subtype under study. Alternatively, an artificial reporter construct, in some cases, is employed to study the activation of the individual PPAR's expressed in cells. The ligand binding domain of the particular receptor to be studied, in some embodiments, is fused to the DNA binding domain of a transcription factor, which produces convenient laboratory readouts, such as the yeast GAL4 transcription factor DNA binding domain. The fusion protein, in some cases, is transfected into a laboratory cell line along with a Gal4 enhancer, which effects the expression of the luciferase protein. When such a system is transfected into a laboratory cell line, binding of a receptor agonist to the fusion protein will result in light emission.
The PPAR transient transactivation assay, in some cases, is based on transient transfection into human HEK293 cells of two plasmids encoding a chimeric test protein and a reporter protein respectively. The chimeric test protein, in some cases, is a fusion of the DNA binding domain (DBD) from the yeast GAL4 transcription factor to the ligand binding domain (LBD) of the human PPAR proteins. The PPAR-LBD moiety harbored in addition to the ligand binding pocket also has the native activation domain, allowing the fusion protein to function as a PPAR ligand dependent transcription factor. The GAL4 DBD will direct the chimeric protein to bind only to Gal4 enhancers (of which none existed in HEK293 cells). The reporter plasmid contained a Gal4 enhancer driving the expression of the firefly luciferase protein. After transfection, HEK293 cells expressed the GAL4-DBD-PPAR-LBD fusion protein. […] The amount of luciferase protein is measured by light emission after addition of the appropriate substrate. […]

hPPARγ = molecular target: T2, hPPARγ (Homo sapiens, UniProt P37231); assay: PPAR transient transactivation assay, hPPARγ
T2 construct: expressed in transfected cells; host or cells: HEK293
T2 sequence (P37231 238-503 limits assumed): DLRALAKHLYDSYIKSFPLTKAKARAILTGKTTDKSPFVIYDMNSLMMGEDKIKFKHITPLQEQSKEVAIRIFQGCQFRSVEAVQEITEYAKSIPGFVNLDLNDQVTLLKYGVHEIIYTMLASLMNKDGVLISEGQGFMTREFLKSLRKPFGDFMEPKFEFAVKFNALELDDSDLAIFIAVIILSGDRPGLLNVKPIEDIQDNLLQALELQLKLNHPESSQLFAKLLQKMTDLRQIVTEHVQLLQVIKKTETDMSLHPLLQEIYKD
Method: as §1
The PPAR transient transactivation assay, in some cases, is based on transient transfection into human HEK293 cells of two plasmids encoding a chimeric test protein and a reporter protein respectively. […] The amount of luciferase protein is measured by light emission after addition of the appropriate substrate. […]

[1] = test system: human retinoid X receptor (hRXR); assay: human retinoid X receptor (hRXR) activity
LXRα = molecular target: T3, LXRα (Homo sapiens, UniProt Q13133); assay: activity on nuclear receptor LXRα
T3 sequence (Q13133 1-447): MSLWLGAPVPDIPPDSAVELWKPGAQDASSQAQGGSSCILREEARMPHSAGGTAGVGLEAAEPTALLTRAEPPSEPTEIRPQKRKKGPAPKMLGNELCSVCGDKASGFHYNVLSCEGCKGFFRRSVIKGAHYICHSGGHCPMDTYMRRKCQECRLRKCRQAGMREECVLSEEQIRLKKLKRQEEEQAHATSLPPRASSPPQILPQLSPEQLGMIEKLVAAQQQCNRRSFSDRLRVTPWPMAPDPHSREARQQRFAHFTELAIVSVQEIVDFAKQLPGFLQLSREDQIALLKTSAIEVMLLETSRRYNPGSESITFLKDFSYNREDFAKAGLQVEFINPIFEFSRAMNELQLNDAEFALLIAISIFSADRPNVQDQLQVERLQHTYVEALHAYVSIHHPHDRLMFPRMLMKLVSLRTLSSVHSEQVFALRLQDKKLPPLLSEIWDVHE

human muscle cell lines = assay: fatty acid oxidation in human muscle cell lines
rat muscle cell lines = assay: fatty acid oxidation in rat muscle cell lines

- type of agonism on PPARδ (hPPARδ): full agonist
- selectivity for PPARδ over PPARα (hPPARδ; PPARδ over PPARα, human PPAR subtypes in vitro): at least 100 fold
- selectivity for PPARδ over PPARγ (hPPARδ; PPARδ over PPARγ, human PPAR subtypes in vitro): at least 400 fold
- activity on PPARγ in transactivation assays (hPPARγ): negligible activity
- type of agonism on PPARγ (hPPARγ): partial agonist
- hRXR activity [1]: did not show any
- activity on LXRα (LXRα): did not show any
SMILES: Cc1cc(OC/C=C(/c2ccc(F)cc2)c2ccc(C#CCN3CCOCC3)cc2)ccc1OCC(=O)O [Compound 1, (E)-[4-[3-(4-Fluorophenyl)-3-[4-[3-(morpholin-4-yl)propynyl]phenyl]allyloxy]-2-methyl-phenoxy]acetic acid]
- fatty acid oxidation (human muscle cell lines): dose-dependent increase
- fatty acid oxidation (rat muscle cell lines): dose-dependent increase
